Entries after “also recorded” stand apart in the source; their conditions may differ.
What was measured:
human sperm = assay: Electron microscopy of treated sperm (TEM/SEM); type: cell-based; conditions: Ac-B-treated human sperm
Procedure: For electron microscopy, the suspending medium was replaced with 0.1M phosphate buffer (pH 7.0). A concentrated untreated (control) and Ac-B-treated (experimental) human sperm suspension were mixed with 2% glutaraldehyde in phosphate buffer for fixation at 4 degree C. for 4 hours. After three successive washings in buffer at room temperature, post-fixation was done by 1% osmium tetroxide. Thirty minutes after post-fixation, the spermatozoa were quickly washed with phosphate buffer and end block staining was done by saturated urenyl acetate solution. Dehydration of the fixed spermatozoa was done in graded (50%, 70%, 90% and 100%) ethyl alcohol. A portion of each set of dehydrated sperms were embedded in spur and blocks were prepared for ultra-thin sectioning. Ultra-thin sections were prepared in LKB Ultramicrotome using a diamond knife. Finally the thin sections were stained with urenyl acetate and freshly prepared lead citrate. The stained sections were thoroughly examined under TECHNI G2 BIOTWEEN transmission electron microscope (at ×25000). The rest of the dehydrated sperm sets were prepared for examination under tescan scanning electron microscope.

[1] = tested on: Salmonella typhimurium TA100; assay: Bacterial reverse mutation assay (MUTA-CHROMOPLATE kit)
Text: Ac-B was examined for its ability to produce mutations/revert mutations in a bacterial reverse mutation assay using amino acid-requiring strain of Salmonella typhimurium (S. typhimurium) TA100 and the result was compared with a known mutagen (Na-azide). A commercial kit (The MUTA-CHROMOPLATE) from M/s Environmental Biodetection Products Inc. Ontario, Canada, was used. Suspensions of bacterial cells were exposed to the test substance in the presence and in the absence of an exogenous metabolic activation system. After 5 days of incubation, revertant colonies were detected by the change of colour from blue to yellow on solvent control plates. All yellow, partially yellow or turbid wells were scored as positive, while all purple wells were scored as negative. Number of positive wells for each plate was recorded, their number was counted and compared to that of spontaneous revertant colonies. The “Background” (i.e. no test material added) plate was used as reference for the level of spontaneous or background mutation of the assay organism. The statistical difference was determined using a table provided with the kit.
Score of mutagenicity as per the set criteria of Muta-Chromoplate test kit.

human spermatozoa [2] = assay: Penetrak Test (bovine cervical mucus penetration test); type: cell-based; conditions: treated at MEC, washed; 1 hour; BWW control about 27(±3) mm
Procedure: The bovine cervical mucus penetration test was performed using the Penetrak kit (Serono Diagnostics, Allentown, Pa.).
Working suspension of human spermatozoa, prepared as above was treated in vitro with Ac-B at MEC, washed and resuspended in pre-equilibrated BWW medium. For the negative control set, same treatment was given to the sperms in BWW medium. Flat-capillary tubes filled with periovulatory mid-cycle bovine cervical mucus, in duplicate, were thawed at room temperature for 30 minutes and snapped at the red score mark above the mucus meniscus. The cut end was placed in tube containing treated/control washed sperm suspension and placed inside a CO2 incubator for 1 hour. The capillary tubes were then taken out, cleaned to remove superficially attached sperms, placed on a calibrated slide and examined by phase contrast microscopy (at ×400). The vanguard sperm was located and the distance (in mm) covered by it was measured to score the penetrating capacity of a sperm of the test sets.

human spermatozoa [3] = assay: Membrane lipid peroxidation, MDA by thiobarbituric acid (TBA) test; type: cell-based; conditions: Ac-B 10-120 microgram per ml, 20 seconds
Procedure: Membrane lipid peroxidation was estimated by the end point generation of malondialdehyde (MDA) determined by the thiobarbituric acid (TBA) test.
Suspension of human spermatozoa was prepared using the swim up technique, as described above. A series of dilutions (10, 20, 40, 60, 80, 100 and 120 microgram per ml) of Ac-B was prepared in BWW medium. From each test (Ac-B) solution, 800 microliters was taken out and mixed with 200 microliters of sperm suspension with a gentle vortex for 10 seconds. After 20 seconds of mixing, the treated spermatozoa were separated from the suspending medium by centrifugation. The pellet of washed spermatozoa was resuspended in physiological saline. A control set of untreated sperm was treated similarly. Membrane lipid peroxidation was estimated by the end point generation of malondialdehyde (MDA), determined by the thiobarbituric acid (TBA) test.
Briefly, diluted spermatozoa with or without treatment (250×10^6 cells in 1 ml) were mixed with 1 ml of cold 20% (wt/vol) trichloroacetic acid (TCA) to precipitate protein. The precipitate was pelleted by centrifugation (2000 rpm for 10 minutes), and 1 ml of the supernatant was incubated with 1 ml of 0.67% (wt/vol) TBA in a boiling water bath at 100 degree C. for 30 minutes. After cooling, the absorbance was determined by a spectrophotometer (UNICAM PU 8610 Kinetics spectrophotometer; Philips, Holland) at 535 nm.

HIV = assay: Inactivation of HIV in vitro (summary statements); type: cell-based
Procedure: Human CD4+ T cell line CEM-GFP cells were infected with HIV-1 NL-4.3 virus pretreated without or with Ac-B at varying concentrations (1 hour at 37 degree C.) at a multiplicity of infection (MOI) of 0.01. The cells were then cultured in the presence or absence of Ac-B for up to 7 days post infection. Virus production was analyzed in the culture supernatant on day-7 post infection by p24 antigen capture ELISA
P4 (Hela-CD4-LTR-β Gal) cells were infected with 0.05 MOI of NL4.3 virus pretreated without or with Ac-B at varying concentrations (1 hour at 37 degree C.) followed by incubation for 48 hours in the presence or absence of Ac-B at a concentration of 0.5 to 2.5 microgram per ml. Virus production was analyzed by ELISA of p24 antigen in the culture supernatant. Viral transmission in the transfected cells was evaluated by X-gal staining, in which an antiretroviral therapeutic drug, Azidothymidine (AZT) was used as positive control.

Candida albicans = assay: Effect on in vitro culture of Candida albicans for 24 hours; type: cell-based; conditions: Ac-B 125 microgram per ml; PD agar
Procedure: Candida albicans spores were grown in vitro on Potato dextrose [PD] agar plates without (control) and with Ac-B at a concentration of 125 microgram per ml.

human spermatozoa [4] = assay: Motility revival test (Experiment A); type: cell-based; conditions: human spermatozoa treated at MEC, washed, incubated 30-60 minutes at 37 degree C
Procedure: Human spermatozoa, treated with Ac-B at MEC and BWW control set were washed twice in pre-equilibrated BWW medium, re-suspended in fresh BWW medium and again incubated in a CO2-incubator at 37 degree C. for 30-60 minutes. At the end of the incubation, wet-preparation of spermatozoa was made from each set on a glass slide. The preparation was examined under a phase contrast microscope (at ×400) to note reversal of motility in 10 fields-of-view.

Substance: Acaciaside-B [Ac-B]
- Electron microscopic finding on plasma membrane (TEM) (human sperm): vesiculization/vacuolization of the plasma membrane leading to its disintegration
- Overall mutagenicity result ([1]; Ames Test): non-mutagenic
- No. of '+' wells (Muta-Chromoplate score) ([1]; Background = 20, Blank = 0): 18
- Penetration of vanguard sperm into bovine cervical mucus column (human spermatozoa [2]): capillary was devoid of sperm inside the mucus column
- Production of malondialdehyde (MDA) (human spermatozoa [3]): increase in the production of MDA; also recorded: dose-dependent increased generation of malondialdehyde (MDA)
- Dose level preventing HIV infection in vitro (HIV): greater than or equal to 1.0 microgram per ml
- Number of Candida albicans colonies, presence vs absence of Ac-B (Candida albicans): no significant difference
- Sizes of individual Candida albicans colonies (Candida albicans): comparatively smaller
- Revival of motility after washing and re-incubation (human spermatozoa [4]): no sign for revival of motility; also recorded: irreversible
